According to patent US20160084841A1, “Method for Predicting Clinical Effect of Immunotherapy” (INTERNATIONAL INSTITUTE OF CANCER IMMUNOLOGY, INC., priority 2013, published 2016):

Columns and labels:
[1] = test system: anti-WT1235 peptide IgG antibody; assay: ELISA using variant WT1 antigen peptide as immobilized antigen to assay anti-WT1235 peptide IgG antibody; format: binding, human; conditions: serum of thymic carcinoma patient given WT1235 peptide; increase in titer detected; FIG. 19
Description: WK235-243 (SEQ ID NO: 62) and WT237-243 (SEQ ID NO: 63) were synthesized by GL Biochem (Shanghai) Corporation Ltd. WT1-frg2 (SEQ ID NO: 61) was prepared in the same way as in the aforementioned WT1-frg3 (SEQ ID NO: 57).
The measurement of the antibody titer using WT1-frg2 (SEQ ID NO: 61) was performed in the same way as in the aforementioned WT1-frg3 (SEQ ID NO: 57). The measurement of the antibody titer using WK235-243 (SEQ ID NO: 62) or WT237-243 (SEQ ID NO: 63) was performed in the same way as in the aforementioned WT332-347 (SEQ ID NO: 58), etc.

[2] = test system: anti-WT1332 peptide IgG antibody; assay: ELISA using variant WT1 antigen peptide as immobilized antigen to assay anti-WT1332 peptide IgG antibody; format: binding, human; conditions: serum diluted 100-fold; titer increased in WT1332-immunized patient, not in unimmunized patient; FIG. 18
Description: A vector expressing WT1-frg3 (SEQ ID NO: 57) as a GST-tagged protein was constructed using a pGEX-5X-3 vector (GE Healthcare Japan Corp.). The prepared vector was transferred to competent cells DH5α by heat shock. The vector-transferred E. coli was cultured. At the point in time when the OD600 value became 0.4 to 0.6, isopropyl-β-D-thiogalactoside (IPTG) was added at a final concentration of 1 mM to the medium to induce protein expression. The cells were further cultured for 3 hours. The bacterial cells were collected by centrifugation and then lysed in an SDS sample buffer (0.125 M Tris-HCl, 0.1 M DTT, 4% SDS, 10% sucrose, and bromophenol blue, pH 6.8). This lysate was fractionated on the basis of molecular weights by SDS-PAGE using a disc-type electrophoresis apparatus NA-1800 (Nihon Eido Corp.). A portion of each fraction thus collected by SDS-PAGE was stained with CBB, and a fraction containing WT1 was recovered. The purified protein was dissolved in an immobilizing buffer for ELISA (10 mM NaCO3, 30 mM NaHCO3, and 0.02% NaN3, pH 9.6) and used as an antigen for ELISA.
The GST-WT1 frag1 protein solution (10 ng/μL) was added at 100 μL/well to a 96-well plate for ELISA. The plate was left overnight at 37° C. to immobilize the antigen thereon. After washing with 0.05% TBST, blocking was performed by shaking at room temperature for 2 hours using a blocking buffer (1% gelatin/0.05% TBST). Then, the serum diluted 100-fold with 0.05% TBST was added thereto at 100 μL/well and reacted overnight at 4° C. […] The reaction was terminated with 1 N HCl, and the absorbance at 450 nm was then measured using a microplate reader (CORONA […] MTP-32).
(§1) To a 96-well reaction plate supplied with Peptide Coating Kit (Takara Bio Inc.) having amino groups (—NH2) attached to the bottom surface of the wells, a solution (4 μg/mL) of the WT1 peptide dissolved in a reaction buffer supplied with Peptide Coating Kit was added at 50 μL/well. […] The reaction was terminated with 1 N HCl, and the absorbance at 450 nm was then measured using a microplate reader (CORONA […] MTP-310Lab).

[3] = test system: recurrent malignant glioblastoma (GBM) patients; assay: Anti-WT1-235 peptide IgG antibody titer (ELISA) in serum of GBM patients given WT1235 peptide vaccine; format: in vivo, human; conditions: 2 months and 3 months after the start of administration compared with before, ELISA antigen WT1-235 peptide, FIG. 1
Description: 1-1 WT1 peptide immunotherapy was carried out in 72 GBM patients using WT1235 peptide (WT1-CTL peptide (modified mp235-243) (SEQ ID NO: 3)) as a WT1 peptide vaccine. […]
as §1, with “groups” for “groups (—NH2)”, “WT1-235” for “WT1”
The comparison between two groups was conducted using the Mann-Whitney test. […] The anti-WT1 antigen peptide antibody titer was measured using the serum negative for the anti-WT1 antigen peptide antibody (patient's serum before the start of WT1 peptide immunotherapy) and the average value plus twice the standard deviation=0.045. […]

[4] = test system: malignant thymic carcinoma patient; assay: Anti-WT1332 / anti-WT1235 IgG antibody titer (ELISA) in serum of a patient given WT1235 peptide vaccine; format: in vivo, human
Source text: (§2) From one malignant glioblastoma patient given WT1332 peptide vaccine (SEQ ID NO: 6), a serum sample was obtained before the start of administration of the vaccine, at 4 weeks after the start of administration, and at 1 year and 2 months after the start of administration. From one malignant thymic carcinoma patient given WT1235 peptide vaccine (WT1-CTL peptide (modified mp235-243) (SEQ ID NO: 3)) alone, a serum sample was obtained as a negative control in the same way as above. Each serum sample was stored at −20° C. until assay.
The GST-WT1 frag1 protein solution (10 ng/μL) was added at 100 μL/well to a 96-well plate for ELISA. The plate was left overnight at 37° C. to immobilize the antigen thereon. After washing with 0.05% TBST, blocking was performed by shaking at room temperature for 2 hours using a blocking buffer (1% gelatin/0.05% TBST). Then, the serum diluted 100-fold with 0.05% TBST was added thereto at 100 μL/well and reacted overnight at 4° C. The plate was reacted with a peroxidase-labeled goat anti-human IgG antibody (Santa Cruz Biotechnology, Inc.) as a secondary antibody at room temperature for 2 hours. Then, a color was developed using a TMB kit (KPL, Kirkegaard & Perry Laboratories, Inc.). The reaction was terminated with 1 N HCl, and the absorbance at 450 nm was then measured using a microplate reader (CORONA […] MTP-32). […]

[5] = test system: malignant glioblastoma patient; assay: Anti-WT1332 IgG antibody titer (ELISA) in serum of a patient given WT1332 peptide vaccine; format: in vivo, human; conditions: one patient immunized with WT1332 peptide, FIG. 18
Source text: as §2
[…] The plate was left overnight at 37° C. to immobilize the antigen thereon. After washing with 0.05% TBST, blocking was performed by shaking at room temperature for 2 hours using a blocking buffer (1% gelatin/0.05% TBST). […] The reaction was terminated with 1 N HCl, and the absorbance at 450 nm was then measured using a microplate reader (CORONA […] MTP-32).
as §1

## CMTWNQMNK [WK235-243]
[1]
  ability as ELISA antigen to measure anti-WT1235 IgG antibody level in patient's serum: could measure an anti-WT1235 IgG antibody level in patient's serum

## TWNQMNL [WT237-243]
[1]
  ability as ELISA antigen to measure anti-WT1235 IgG antibody level in patient's serum: could measure an anti-WT1235 IgG antibody level in patient's serum

## KRYFKLS [WT332-338]
[2]
  ability as ELISA antigen to measure anti-WT1332 IgG antibody level in patient's serum: could measure an anti-WT1332 IgG antibody level in patient's serum

## CYTWNQMNL (Montanide ISA51 emulsion) [WT1235 peptide vaccine, emulsion with Montanide ISA51]
[3]
  anti-WT1-235 peptide IgG antibody titer after the start of administration: significantly increased
[4]; negative control: one patient immunized with WT1235 peptide alone (unimmunized with WT1332 peptide), ELISA antigen WT1-frg3
  anti-WT1332 IgG antibody titer after immunization: not increased
[4]; one thymic carcinoma patient, serum at 4 weeks and 7 months after start of administration, ELISA antigen WT1-frg2, FIG. 19
  anti-WT1235 IgG antibody titer: increase in anti-WT1235 IgG antibody titer was detected

## KRYFKLSHLQMHSRKH [WT332-347]
[2]
  ability as ELISA antigen to measure anti-WT1332 IgG antibody level in patient's serum: could measure an anti-WT1332 IgG antibody level in patient's serum

## KRYFKLSHLQMHSRKH [WT1332 peptide]
[5]; ELISA antigen WT1-frg3
  anti-WT1332 IgG antibody titer after immunization: increased
[5]; ELISA antigen WT332-347, WT334-342 or WT332-338
  anti-WT1332 IgG antibody titer after immunization: increased

## YFKLSHLQM [WT334-342]
[2]
  ability as ELISA antigen to measure anti-WT1332 IgG antibody level in patient's serum: could measure an anti-WT1332 IgG antibody level in patient's serum
